Laboratory results published in PMC11579512, “Deoxybouvardin-glucoside induces apoptosis in non-small cell lung cancer cells by targeting EGFR/MET and AKT signaling pathway” (EXCLI Journal, 2024).

Columns and labels:
HCC827 cells [1] = experiment: Multi-caspase assay, HCC827; assay type: cell-based, human; design: Caspase+ cells / Total Caspase+ cells / dead cells (multi-caspase assay) / Live cells (multi-caspase assay): unit not given here; conditions: for cells with activated caspases: 48 h, background 6.52 %
Experimental: (§1) HaCaT cells were grown in DMEM, whereas HCC827 and HCC827GR cells were grown in RPMI 1640. All culture media were supplemented with FBS (10 %) and P/S (1 %), and the cells were grown at 37 °C in 5 % CO2.

PARP = experiment: Immunoblot PARP in HCC827 and HCC827GR cells; assay type: cell-based, human; conditions: for PARP protein Ratio: DBG 0 nM = 1.00
Experimental: as §1
(§2) Cells were lysed in RIPA buffer, and protein concentration was determined using a Bio-Rad DC Protein Assay kit (Bio-Rad, Hercules, CA, USA). Protein samples from the cell lysates were resolved by sodium dodecyl sulfate-polyacrylamide gel electrophoresis and then transferred onto polyvinylidene fluoride membranes. The membranes were blocked with 3 % or 5 % skim milk and then incubated at 4 °C overnight with the indicated primary antibodies, followed by the corresponding horseradish peroxidase-conjugated secondary antibodies at RT for 2 h. Protein bands were visualized using western blotting luminol reagent solution and ImageQuant LAS 500 (GE Healthcare, Uppsala, Sweden). The density of the bands was quantified using ImageJ software (NIH, Bethesda, MD, USA).

p-EGFR = experiment: Immunoblot p-EGFR with NAC pretreatment, HCC827 and HCC827GR cells; assay type: cell-based, human; conditions: for p-EGFR protein Ratio: control = 1.00
Experimental: as §1, §2

HCC827 cells [2] = experiment: Intracellular ROS (Muse Oxidative Stress Kit), HCC827; assay type: cell-based, human; conditions: 48 h, control 7.32 %
Experimental: as §1
The levels of intracellular ROS were measured using a Muse™ Oxidative Stress Kit (MCH100111, Merck Millipore) in accordance with the manufacturer's instructions. The cells were incubated with a Muse™ Oxidative Stress Reagent working solution in the dark at 37 °C for 30 min. Intracellular ROS generation was measured using a Muse™ Cell Analyzer.

MET = molecular target: T1, MET (Homo sapiens, UniProt P08581); experiment: In vitro ADP-Glo kinase assay, MET; assay type: biochemical
T1 construct: purchased Promega
Experimental: Subsequently, each well was added with ADP-Glo reagent and incubated for another 40 min. After completion of the kinase reaction, each well was added with kinase activity detection reagent and then incubated for 30 min. Liquid was dispensed with I.DOT (Dispendix, Stuttgart, Germany). Luminescence was measured on a Centro LB 960 microplate luminometer (Berthold Technologies).

[3] = HCC827, DBG 3 nM, mean of samples 1-3
[4] = HCC827, DBG 6 nM, mean of samples 1-3
[5] = HCC827, DBG 12 nM, mean of samples 1-3

T1 sequence (P08581 25-1390): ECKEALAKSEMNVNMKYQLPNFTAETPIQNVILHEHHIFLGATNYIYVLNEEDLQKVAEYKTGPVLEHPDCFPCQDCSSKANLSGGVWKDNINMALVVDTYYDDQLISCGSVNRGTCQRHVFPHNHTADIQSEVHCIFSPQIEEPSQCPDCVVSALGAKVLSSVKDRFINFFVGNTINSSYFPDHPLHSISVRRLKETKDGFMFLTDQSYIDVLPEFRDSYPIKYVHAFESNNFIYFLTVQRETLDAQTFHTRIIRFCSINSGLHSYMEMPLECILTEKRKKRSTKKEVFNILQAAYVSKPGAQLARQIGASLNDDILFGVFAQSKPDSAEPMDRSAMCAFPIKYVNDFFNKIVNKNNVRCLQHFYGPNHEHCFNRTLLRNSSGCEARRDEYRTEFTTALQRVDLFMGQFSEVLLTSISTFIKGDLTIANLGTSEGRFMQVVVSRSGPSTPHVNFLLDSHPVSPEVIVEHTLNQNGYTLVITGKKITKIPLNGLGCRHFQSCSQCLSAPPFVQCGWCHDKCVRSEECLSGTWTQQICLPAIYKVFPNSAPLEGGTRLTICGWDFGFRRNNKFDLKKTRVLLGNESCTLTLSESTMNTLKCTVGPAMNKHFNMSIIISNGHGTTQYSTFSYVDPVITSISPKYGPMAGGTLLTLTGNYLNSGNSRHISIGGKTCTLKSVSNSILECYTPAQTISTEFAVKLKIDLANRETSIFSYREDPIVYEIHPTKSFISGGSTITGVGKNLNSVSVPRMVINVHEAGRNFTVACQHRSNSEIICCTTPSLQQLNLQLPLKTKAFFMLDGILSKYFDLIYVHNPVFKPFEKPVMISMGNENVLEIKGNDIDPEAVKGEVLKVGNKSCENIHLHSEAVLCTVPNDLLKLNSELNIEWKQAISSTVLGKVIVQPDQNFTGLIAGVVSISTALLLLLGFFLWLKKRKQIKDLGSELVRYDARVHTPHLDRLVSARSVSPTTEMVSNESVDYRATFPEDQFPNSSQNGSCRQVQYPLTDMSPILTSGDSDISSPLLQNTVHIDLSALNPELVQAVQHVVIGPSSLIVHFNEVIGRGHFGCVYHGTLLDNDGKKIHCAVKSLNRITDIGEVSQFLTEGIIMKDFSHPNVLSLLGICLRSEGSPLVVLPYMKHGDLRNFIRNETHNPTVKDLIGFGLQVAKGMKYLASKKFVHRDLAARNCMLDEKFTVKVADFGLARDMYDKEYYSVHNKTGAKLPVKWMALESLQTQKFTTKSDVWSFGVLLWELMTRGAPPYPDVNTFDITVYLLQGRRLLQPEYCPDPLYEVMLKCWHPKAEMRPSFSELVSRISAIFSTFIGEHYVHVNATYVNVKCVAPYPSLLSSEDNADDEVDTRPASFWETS

In the case of `COc1ccc(C[C@H]2C(=O)N[C@@H](C)C(=O)N(C)[C@H]3Cc4ccc(cc4)Oc4cc(ccc4O[C@@H]4O[C@H](CO)[C@@H](O)[C@H](O)[C@H]4O)C[C@@H](C(=O)N[C@H](C)C(=O)N[C@@H](C)C(=O)N2C)N(C)C3=O)cc1` [DBG, deoxybouvardin glucoside], the “cells with activated caspases” value (HCC827 cells [1]; DBG 3 nM) is reported as 16.23%, the “cells with activated caspases” value (HCC827 cells [1]; DBG 6 nM) is reported as 24.10% and the “cells with activated caspases” value (HCC827 cells [1]; DBG 12 nM) is reported as 25.94%. The “Caspase+ cells” value (HCC827 cells [1]; [3]) was 4.43, the “Caspase+/dead cells” value (HCC827 cells [1]; [3]) was 11.80 and the “Live cells (multi-caspase assay)” value (HCC827 cells [1]; [3]) was 83.72. The “Total Caspase+ cells” value (HCC827 cells [1]; [3]) was 16.23, the “dead cells (multi-caspase assay)” value (HCC827 cells [1]; [3]) was 0.05 and the “Caspase+ cells” value (HCC827 cells [1]; HCC827, DBG 3 nM, sample 1) was 5.19. The “Caspase+/dead cells” value (HCC827 cells [1]; HCC827, DBG 3 nM, sample 1) was 10.83, the “Live cells (multi-caspase assay)” value (HCC827 cells [1]; HCC827, DBG 3 nM, sample 1) was 83.88 and the “Total Caspase+ cells” value (HCC827 cells [1]; HCC827, DBG 3 nM, sample 1) was 16.02. For the same compound, the “dead cells (multi-caspase assay)” value (HCC827 cells [1]; HCC827, DBG 3 nM, sample 1) was 0.10, the “Caspase+ cells” value (HCC827 cells [1]; HCC827, DBG 3 nM, sample 2) was 3.91 and the “Caspase+/dead cells” value (HCC827 cells [1]; HCC827, DBG 3 nM, sample 2) was 12.71. The “Live cells (multi-caspase assay)” value (HCC827 cells [1]; HCC827, DBG 3 nM, sample 2) was 83.38, the “Total Caspase+ cells” value (HCC827 cells [1]; HCC827, DBG 3 nM, sample 2) was 16.62 and the “dead cells (multi-caspase assay)” value (HCC827 cells [1]; HCC827, DBG 3 nM, sample 2) was 0.00. The “Caspase+ cells” value (HCC827 cells [1]; HCC827, DBG 3 nM, sample 3) was 4.20, the “Caspase+/dead cells” value (HCC827 cells [1]; HCC827, DBG 3 nM, sample 3) was 11.85 and the “Live cells (multi-caspase assay)” value (HCC827 cells [1]; HCC827, DBG 3 nM, sample 3) was 83.89. For the same compound, the “Total Caspase+ cells” value (HCC827 cells [1]; HCC827, DBG 3 nM, sample 3) was 16.06, the “dead cells (multi-caspase assay)” value (HCC827 cells [1]; HCC827, DBG 3 nM, sample 3) was 0.05 and the “Caspase+ cells” value (HCC827 cells [1]; [4]) was 9.84. The “Caspase+/dead cells” value (HCC827 cells [1]; [4]) was 14.26, the “Live cells (multi-caspase assay)” value (HCC827 cells [1]; [4]) was 75.85 and the “Total Caspase+ cells” value (HCC827 cells [1]; [4]) was 24.10. For the same compound, the “dead cells (multi-caspase assay)” value (HCC827 cells [1]; [4]) was 0.00, the “Caspase+ cells” value (HCC827 cells [1]; HCC827, DBG 6 nM, sample 1) was 10.64 and the “Caspase+/dead cells” value (HCC827 cells [1]; HCC827, DBG 6 nM, sample 1) was 13.33. The “Live cells (multi-caspase assay)” value (HCC827 cells [1]; HCC827, DBG 6 nM, sample 1) was 76.03, the “Total Caspase+ cells” value (HCC827 cells [1]; HCC827, DBG 6 nM, sample 1) was 23.97 and the “dead cells (multi-caspase assay)” value (HCC827 cells [1]; HCC827, DBG 6 nM, sample 1) was 0.00. The “Caspase+ cells” value (HCC827 cells [1]; HCC827, DBG 6 nM, sample 2) was 9.67, the “Caspase+/dead cells” value (HCC827 cells [1]; HCC827, DBG 6 nM, sample 2) was 14.53 and the “Live cells (multi-caspase assay)” value (HCC827 cells [1]; HCC827, DBG 6 nM, sample 2) was 75.65. For the same compound, the “Total Caspase+ cells” value (HCC827 cells [1]; HCC827, DBG 6 nM, sample 2) was 24.20, the “dead cells (multi-caspase assay)” value (HCC827 cells [1]; HCC827, DBG 6 nM, sample 2) was 0.00 and the “Caspase+ cells” value (HCC827 cells [1]; HCC827, DBG 6 nM, sample 3) was 9.21. For the same compound, the “Caspase+/dead cells” value (HCC827 cells [1]; HCC827, DBG 6 nM, sample 3) was 14.92, the “Live cells (multi-caspase assay)” value (HCC827 cells [1]; HCC827, DBG 6 nM, sample 3) was 75.87 and the “Total Caspase+ cells” value (HCC827 cells [1]; HCC827, DBG 6 nM, sample 3) was 24.13. For the same compound, the “dead cells (multi-caspase assay)” value (HCC827 cells [1]; HCC827, DBG 6 nM, sample 3) was 0.00, the “Caspase+ cells” value (HCC827 cells [1]; [5]) was 16.76 and the “Caspase+/dead cells” value (HCC827 cells [1]; [5]) was 9.18. For the same compound, the “Live cells (multi-caspase assay)” value (HCC827 cells [1]; [5]) was 73.91, the “Total Caspase+ cells” value (HCC827 cells [1]; [5]) was 25.94 and the “dead cells (multi-caspase assay)” value (HCC827 cells [1]; [5]) was 0.08. For the same compound, the “Caspase+ cells” value (HCC827 cells [1]; HCC827, DBG 12 nM, sample 1) was 17.38, the “Caspase+/dead cells” value (HCC827 cells [1]; HCC827, DBG 12 nM, sample 1) was 9.37 and the “Live cells (multi-caspase assay)” value (HCC827 cells [1]; HCC827, DBG 12 nM, sample 1) was 73.00. For the same compound, the “Total Caspase+ cells” value (HCC827 cells [1]; HCC827, DBG 12 nM, sample 1) was 26.75, the “dead cells (multi-caspase assay)” value (HCC827 cells [1]; HCC827, DBG 12 nM, sample 1) was 0.05 and the “Caspase+ cells” value (HCC827 cells [1]; HCC827, DBG 12 nM, sample 2) was 16.62. The “Caspase+/dead cells” value (HCC827 cells [1]; HCC827, DBG 12 nM, sample 2) was 9.35, the “Live cells (multi-caspase assay)” value (HCC827 cells [1]; HCC827, DBG 12 nM, sample 2) was 73.88 and the “Total Caspase+ cells” value (HCC827 cells [1]; HCC827, DBG 12 nM, sample 2) was 25.97. The “dead cells (multi-caspase assay)” value (HCC827 cells [1]; HCC827, DBG 12 nM, sample 2) was 0.15, the “Caspase+ cells” value (HCC827 cells [1]; HCC827, DBG 12 nM, sample 3) was 16.27 and the “Caspase+/dead cells” value (HCC827 cells [1]; HCC827, DBG 12 nM, sample 3) was 8.82. The “Live cells (multi-caspase assay)” value (HCC827 cells [1]; HCC827, DBG 12 nM, sample 3) was 74.86, the “Total Caspase+ cells” value (HCC827 cells [1]; HCC827, DBG 12 nM, sample 3) was 25.09 and the “dead cells (multi-caspase assay)” value (HCC827 cells [1]; HCC827, DBG 12 nM, sample 3) was 0.05. For the same compound, the PARP protein/actin (PARP; HCC827, DBG 3 nM, DBG 0 nM 0.88) was 0.17, the “PARP protein Ratio” value (PARP; HCC827, DBG 3 nM) was 0.20 and the PARP protein/actin (PARP; HCC827, DBG 6 nM, DBG 0 nM 0.88) was 0.14. The “PARP protein Ratio” value (PARP; HCC827, DBG 6 nM) was 0.16, the PARP protein/actin (PARP; HCC827, DBG 12 nM, DBG 0 nM 0.88) was 0.15 and the “PARP protein Ratio” value (PARP; HCC827, DBG 12 nM) was 0.17. The PARP protein/actin (PARP; HCC827GR, DBG 3 nM, DBG 0 nM 0.78) was 0.46, the “PARP protein Ratio” value (PARP; HCC827GR, DBG 3 nM) was 0.59 and the PARP protein/actin (PARP; HCC827GR, DBG 6 nM, DBG 0 nM 0.78) was 0.23. For the same compound, the “PARP protein Ratio” value (PARP; HCC827GR, DBG 6 nM) was 0.29, the PARP protein/actin (PARP; HCC827GR, DBG 12 nM, DBG 0 nM 0.78) was 0.12 and the “PARP protein Ratio” value (PARP; HCC827GR, DBG 12 nM) was 0.16. For the same compound, the “level of whole PARP” value (PARP; HCC827 and HCC827GR, DBG) was “decreased”, the p-EGFR protein/actin (p-EGFR; HCC827, DBG 12 nM, control 0.90) was 0.25 and the “p-EGFR protein Ratio” value (p-EGFR; HCC827, DBG 12 nM) was 0.27. The p-EGFR protein/actin (p-EGFR; HCC827, NAC 4 mM + DBG 12 nM, control 0.90) was 0.27, the “p-EGFR protein Ratio” value (p-EGFR; HCC827, NAC 4 mM + DBG 12 nM) was 0.30 and the p-EGFR protein/actin (p-EGFR; HCC827GR, DBG 12 nM, control 0.93) was 0.40. The “p-EGFR protein Ratio” value (p-EGFR; HCC827GR, DBG 12 nM) was 0.43, the p-EGFR protein/actin (p-EGFR; HCC827GR, NAC 4 mM + DBG 12 nM, control 0.93) was 0.30 and the “p-EGFR protein Ratio” value (p-EGFR; HCC827GR, NAC 4 mM + DBG 12 nM) was 0.32. For the same compound, the “DBG-decreased phosphorylation of EGFR with NAC” value (p-EGFR; NAC 4 mM pretreatment, DBG 48 h) was “did not change”, the ROS level (HCC827 cells [2]; DBG 3 nM) was 18.40% and the ROS level (HCC827 cells [2]; DBG 6 nM) was 47.32%. For the same compound, the ROS level (HCC827 cells [2]; DBG 12 nM) was 70.22%, the IC50 (MET; ADP-Glo, MET 4 ng, RT, 60 min, luminescence, n=3) was 7.26 nM and the “kinase activity, in words” value (MET; DBG 3, 6, 12 nM) was “significantly inhibited”.
